One may read the IC50 as the concentration that gives 50% inhibition.

Here are results for 14 molecules from patent US20170305857A1, “N-ACYLPIPERIDINE ETHER TROPOMYOSIN-RELATED KINASE INHIBITORS” (Pfizer Limited, priority 2014, published 2017).

In this assay the target is T1, recombinant His-tagged cytoplasmic domains of TRKA receptor (NTRK1, PV3144, aa 441-796) (Homo sapiens, UniProt P04629).
T1 construct: aa 441-796; His; purchased Invitrogen PV3144
T1 sequence (P04629 441-796): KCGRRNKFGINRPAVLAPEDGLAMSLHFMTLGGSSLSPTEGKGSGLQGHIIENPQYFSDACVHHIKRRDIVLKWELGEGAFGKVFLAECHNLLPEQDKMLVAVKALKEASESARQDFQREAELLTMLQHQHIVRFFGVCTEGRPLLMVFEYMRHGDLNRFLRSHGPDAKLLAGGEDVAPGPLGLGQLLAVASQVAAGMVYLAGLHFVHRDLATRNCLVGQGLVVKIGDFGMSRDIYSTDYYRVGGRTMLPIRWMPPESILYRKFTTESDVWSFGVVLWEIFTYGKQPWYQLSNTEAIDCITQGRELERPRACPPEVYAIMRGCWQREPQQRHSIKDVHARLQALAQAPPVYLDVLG
Kind of assay: Isolated TRK enzyme assay (HTRF KinEASE-TK, PV3144 TrkA enzyme assay). It is filed as biochemical. Particulars: 4 nM enzyme, 40 uM ATP, 35 min, arithmetic mean where more than one reading. Put shortly: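 Enzyme and ATP were preincubated with compound for 20 min at room temperature in buffer with 10 mM MgCl and 2 mM DTT. TK-substrate-Biotin was then added (1 uM final) and the reaction run for an enzyme-specific optimized time. Phosphorylation was read by HTRF, and IC50 values came from sigmoid fits of percent inhibition normalized to plate controls, averaged over replicate readings.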
For the molecule `NC(=O)c1cc(-c2c[nH]cn2)ccc1OC1CCN(C(=O)Cc2ccc(OC(F)(F)F)cc2)CC1` [Example 127, 5-(1H-imidazol-4-yl)-2-[(1-{[4-(trifluoromethoxy)phenyl]acetyl}piperidin-4-yl)oxy]benzamide], the IC50 was determined as 5.5 nM.

For `CNC(=O)Cn1cnc(-c2ccc(OC3CCN(C(=O)Cc4ccc(OC(F)(F)F)cc4)CC3)c(C(N)=O)c2)c1` [Example 128, 5-{1-[2-(methylamino)-2-oxoethyl]-1H-imidazol-4-yl}-2-[(1-{[4-(trifluoromethoxy)phenyl]acetyl}piperidin-4-yl)oxy]benzamide], the 50% inhibitory concentration (IC50) came out at 6.1 nM.

As to `NC(=O)c1cc(-c2cnn(CC3(O)COC3)c2)ccc1OC1CCN(C(=O)Cc2ccc(OC(F)(F)F)cc2)CC1` [Example 129, 5-{1-[(3-hydroxyoxetan-3-yl)methyl]-1H-pyrazol-4-yl}-2-[(1-{[4-(trifluoromethoxy)phenyl]acetyl}piperidin-4-yl)oxy]benzamide], the IC50 was 6.9 nM.

Turning to `NC(=O)c1cc(-c2cnn(CCO)c2)ccc1OC1CCN(C(=O)Cc2ccc(OC3CC3)cc2)CC1` [Example 130, 2-[(1-{[4-(cyclopropyloxy)phenyl]acetyl}piperidin-4-yl)oxy]-5-[1-(2-hydroxyethyl)-1H-pyrazol-4-yl]benzamide], the half-inhibitory concentration (IC50) is 5.5 nM.

Turning to `C[C@@H](CO)n1cc(-c2ccc(OC3CCN(C(=O)Cc4ccc(OC(F)(F)F)cc4)CC3)c(C(N)=O)c2)cn1` [Example 131, 5-{1-[(2S)-1-hydroxypropan-2-yl]-1H-pyrazol-4-yl}-2-[(1-{[4-(trifluoromethoxy)phenyl]acetyl}piperidin-4-yl)oxy]benzamide], the IC50 was determined as 4.4 nM.

For the molecule `C[C@H](CO)n1cc(-c2ccc(OC3CCN(C(=O)Cc4ccc(OC(F)(F)F)cc4)CC3)c(C(N)=O)c2)cn1` [Example 132], the IC50 amounted to 5.1 nM.

`C[C@@H](O)Cn1cc(-c2ccc(OC3CCN(C(=O)Cc4ccc(OC(F)(F)F)cc4)CC3)c(C(N)=O)c2)cn1` [Example 133]: the IC50 worked out at 2.6 nM.

As for `C[C@H](O)Cn1cc(-c2ccc(OC3CCN(C(=O)Cc4ccc(OC(F)(F)F)cc4)CC3)c(C(N)=O)c2)cn1` [Example 134], the IC50 was determined as 2.5 nM.

As for `CC(C)(O)Cn1cc(-c2ccc(OC3CCN(C(=O)Cc4ccc(OC(F)(F)F)cc4)CC3)c(C(N)=O)c2)cn1` [Example 135], the IC50 amounted to 3.9 nM.

With `NC(=O)c1cc(-c2c[nH]nn2)ccc1OC1CCN(C(=O)Cc2ccc(OC(F)(F)F)cc2)CC1` [Example 136, 5-(1H-1,2,3-triazol-4-yl)-2-((1-(2-(4-(trifluoromethoxy)phenyl)acetyl)piperidin-4-yl)oxy)benzamide], the 50% inhibitory concentration (IC50) was 5.3 nM.

As to `NCCn1cc(-c2ccc(OC3CCN(C(=O)Cc4ccc(OC(F)(F)F)cc4)CC3)c(C(N)=O)c2)cn1` [Example 138, 5-[1-(2-aminoethyl)-1H-pyrazol-4-yl]-2-[(1-{[4-(trifluoromethoxy)phenyl]acetyl}piperidin-4-yl)oxy]benzamide], the IC50 was 7 nM.

In the case of `Cc1nc(-c2cnc(OC3CCN(C(=O)Cc4ccc(OC(F)(F)F)cc4)CC3)c(C(N)=O)c2)c[nH]1` [Example 139, 5-(2-methyl-1H-imidazol-4-yl)-2-[(1-{[4-(trifluoromethoxy)phenyl]acetyl}piperidin-4-yl)oxy]pyridine-3-carboxamide], the IC50 turned out to be 10.7 nM.

As to `Cn1cc(-c2ccc(OC3CCN(C(=O)Nc4ccc(OC(F)(F)F)cc4F)CC3)c(C(N)=O)c2)cn1` [Example 140, 4-(2-carbamoyl-4-(1-methyl-1H-pyrazol-4-yl)phenoxy)-N-(2-fluoro-4-(trifluoromethoxy)phenyl)piperidine-1-carboxamide], the IC50 came to 10.3 nM.

As to `NC(=O)c1cc(-c2c[nH]cn2)cnc1O[C@H]1CCN(C(=O)Cc2ccc(OC(F)(F)F)cc2)C[C@H]1F` [Example 141, 2-{[(3R,4S)-3-fluoro-1-{[4-(trifluoromethoxy)phenyl]acetyl}piperidin-4-yl]oxy}-5-(1H-imidazol-4-yl)pyridine-3-carboxamide], the half-inhibitory concentration (IC50) amounted to 1.4 nM.
